Measured values published in paper PMC11213934, “Allosteric modulators of M1 muscarinic receptors enhance acetylcholine efficacy and decrease locomotor activity and turning behaviors in zebrafish” (Scientific Reports, 2024).
Entries after “also recorded” stand apart in the source; their conditions may differ. Marks after values point to notes of the source that are not given here.

What was measured:
[1] = molecular target: T1, human M1 muscarinic receptors (Homo sapiens, UniProt P11229); test: [3H]AA release ACh dose-response families fitted to an allosteric operational model; settings: for Operational efficacy-B, τB: best-fit ± s.e.m.; for Operational efficacy-B, τB / Affinity-B, logKB: Em set to 2.0; for Affinity-B, logKB: given as logKB (negative log value), allosteric site
T1 sequence (P11229 1-460): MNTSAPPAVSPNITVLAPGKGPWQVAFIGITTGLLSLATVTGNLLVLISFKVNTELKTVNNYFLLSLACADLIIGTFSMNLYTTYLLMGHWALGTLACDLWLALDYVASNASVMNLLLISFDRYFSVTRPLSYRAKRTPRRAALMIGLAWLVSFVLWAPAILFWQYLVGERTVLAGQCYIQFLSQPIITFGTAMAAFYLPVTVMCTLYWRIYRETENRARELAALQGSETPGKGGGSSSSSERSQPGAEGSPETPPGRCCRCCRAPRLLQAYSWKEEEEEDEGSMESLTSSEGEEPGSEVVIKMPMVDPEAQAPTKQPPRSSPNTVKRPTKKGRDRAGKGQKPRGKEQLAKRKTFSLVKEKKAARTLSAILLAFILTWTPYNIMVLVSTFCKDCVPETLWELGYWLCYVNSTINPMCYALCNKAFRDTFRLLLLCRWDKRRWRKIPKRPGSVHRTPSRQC
Description: Stably transfected CHO-hM1 cells were seeded on 24-well plates (Greiner Bio-One GmbH, Frickenhausen, Germany) at a density of 5.0 × 10^4 cells/well in 0.5 ml of F-12 medium. Cells were incubated until they attached (approximately 3 h), followed by the addition of [^3H]AA to a final concentration of 0.05 μCi of [^3H]AA per well. The cells were then grown for 16 to 20 h before the assay was performed. [^3H]AA release was measured in Eagle’s basal medium with 20 mM HEPES and 2 mg/ml fatty acid-free bovine serum albumin (EM-BSA). Cells were rinsed twice with EM-BSA, followed by the addition of EM-BSA media containing experimental agents and incubated for 1 h at 37 °C. The assay was terminated by aspiration of the media, and the amount of [^3H]AA released was determined by liquid scintillation counting (Beckman-Coulter LS6500).
Tabulated [^3H]AA release data are represented as a fraction of maximal release elicited by ACh or as the fraction of release elicited by the relevant concentration of ACh alone, as indicated. Dose-response curves were normalized to the maximal response of ACh without allosteric ligand. Where indicated, response curves were analyzed using the empirical four-parameter equation: Y=Top+Bottom-Top/1+X/C50^n where X is the concentration of the ligand used, Y is the amount of response, C50 is the concentration of the ligand that produces 50% of the maximal effect, Top and Bottom are the top and bottom plateaus of the curve, and n is related to the Hill slope for the curve. Where indicated, families of response curves were analyzed according to an allosteric operational model[50],[51]: Y=EM[τAA(KB+αβB)+τBBKA]/[τAA(KB+αβB)+τBBKA+AKB+KAKB+KAB+αAB] where EM is the maximal response; A is the concentration of ACh; B is the concentration of the allosteric ligand; τA and τB represent the operational efficacies of A and B, respectively; KA and KB are the equilibrium dissociation constants of A and B; and α and β represent the cooperativities between A and B in terms of binding and activation, respectively. Curve-fitting was carried out with GraphPad Prism, version 5.0 or 6.0 (San Diego CA).

[2] = tested on: wild-type (AB) zebrafish (Danio rerio); type: in vivo; settings: compound at 10 µM relative to controls; mean ± s.e.m., N = 12
[3] = tested on: wild-type (AB) zebrafish (Danio rerio); test: Maximum tolerated concentration (MTC) determination in larval zebrafish; type: in vivo; settings: for MTC (maximum tolerated concentration): after 24 h exposure, 5 dpf larvae; for Concentration up to which no signs of toxicity were produced: highest concentration tested
[4] = tested on: wild-type (AB) zebrafish (Danio rerio); test: animal or person; type: in vivo; settings: for Effect on locomotor activity and turning behaviors, in words: 30 min spontaneous swimming period; for Concentration with significant effects on locomotor behaviors: AB zebrafish; for Distance moved / Variance turn angle: compound at 10 µM relative to controls, mean ± s.e.m., N = 12; for MEC: locomotor behaviors
[5] = molecular target: T1, human M1 muscarinic receptors; test: [3H]-arachidonic acid release in CHO cells expressing M1 receptors, with and without ACh (single modulator concentration, four-parameter curves); type: cell-based; set-up: expressed in transfected cells; host or cells: CHO cells stably transfected with hM1, obtained from Mark Brann's laboratory (NIH); settings: for 0.1 µM ACh: response with modulator present divided by response to ACh alone / 100 µM ACh: response with modulator present divided by response to ACh alone / No ACh: agonist effect of the allosteric ligand by itself, fraction of the maximal response that could be elicited by ACh: modulator 10 µM, CHO-hM1, mean ± s.e.m.; for No ACh: agonist effect of the allosteric ligand by itself, fraction of the maximal response that could be elicited by ACh: at least 4 determinations; for Effect on M1 receptor activity and ACh response, in words: modulators at 10 µM (amiodarone 30 µM)

SMILES	Operational efficacy-B, τB [1]	Affinity-B, logKB [1]	Angular velocity [2]	MTC (maximum tolerated concentration) [3]	Concentration up to which no signs of toxicity were produced [3]	Therap. index [4]	Effect on locomotor activity and turning behaviors, in words [4]	Concentration with significant effects on locomotor behaviors [4]	Distance moved [4]	Variance turn angle [4]	MEC [4]	0.1 µM ACh: response with modulator present divided by response to ACh alone [5]	100 µM ACh: response with modulator present divided by response to ACh alone [5]	No ACh: agonist effect of the allosteric ligand by itself, fraction of the maximal response that could be elicited by ACh [5]	Effect on M1 receptor activity and ACh response, in words [5]	Kb ([1]; read-out: KB, affinity for M1 muscarinic receptors, allosteric operational model)
COc1c(I)cc(CN2C(=O)C(=O)c3ccccc32)cc1I [Compound 8a, 1-(3,5-diiodo-4-methoxybenzyl)indoline-2,3-dione]	0.17 ± 0.03	−6.26 ± 0.15	197.1 ± 19.8 %	> 30 µM	≥ 30 µM	> 100	reduced locomotor activity	1 µM	45.8 ± 6.4*** %	161.1 ± 13.4*** %	0.3 µM	2.44 ± 0.21	1.62 ± 0.06	0.24 ± 0.04	significant enhancement of ACh activity; also recorded: dramatically enhanced ACh efficacy	–
CCN(CC)CCOc1ccc(CN2C(=O)C(=O)c3ccccc32)cc1 [Compound 7, 1-(4-(2-(diethylamino)ethoxy)benzyl)indoline-2,3-dione]	–	−6.20 ± 0.33	122.4 ± 6.9%	10 µM	–	–	not effective in reducing locomotor activity or elevating angular velocity or variance of turn angle	–	72.5 ± 11.8%	93.9 ± 10.6%	> 10 µM	0.06 ± 0.01	1.11 ± 0.06	0.02 ± 0.01	primarily decreased potency and slightly enhanced the efficacy of ACh; also recorded: lacked intrinsic activity; also recorded: decreased ACh potency with little impact on ACh efficacy	–
COc1c(Br)cc(CN2C(=O)C(=O)c3ccccc32)cc1Br [Compound 8c, 1-(3,5-dibromo-4-methoxybenzyl)indoline-2,3-dione]	0.33 ± 0.06	−5.53 ± 0.15	201.6 ± 20.2 %	> 30 µM	≥ 30 µM	–	–	1 µM	26.9 ± 3.7*** %	150.8 ± 12.0*** %	0.1 µM	2.62 ± 0.19	1.42 ± 0.09	0.19 ± 0.03	dramatically enhanced ACh efficacy	3000 nM
COc1c(F)cc(CN2C(=O)C(=O)c3ccccc32)cc1F [Compound 8g, 1-(3,5-difluoro-4-methoxybenzyl)indoline-2,3-dione]	–	–	144.5 ± 18.6 %	30 µM	–	30	–	–	65.7 ± 11.7*** %	126.5 ± 10.4* %	1 µM	1.41 ± 0.13	0.95 ± 0.05	0.03 ± 0.01	–	–
